One experiment deals with T1, HGFR (Homo sapiens, UniProt P08581).
T1 construct: purchased Upstate 14-526
T1 sequence (P08581 974-1390 limits assumed): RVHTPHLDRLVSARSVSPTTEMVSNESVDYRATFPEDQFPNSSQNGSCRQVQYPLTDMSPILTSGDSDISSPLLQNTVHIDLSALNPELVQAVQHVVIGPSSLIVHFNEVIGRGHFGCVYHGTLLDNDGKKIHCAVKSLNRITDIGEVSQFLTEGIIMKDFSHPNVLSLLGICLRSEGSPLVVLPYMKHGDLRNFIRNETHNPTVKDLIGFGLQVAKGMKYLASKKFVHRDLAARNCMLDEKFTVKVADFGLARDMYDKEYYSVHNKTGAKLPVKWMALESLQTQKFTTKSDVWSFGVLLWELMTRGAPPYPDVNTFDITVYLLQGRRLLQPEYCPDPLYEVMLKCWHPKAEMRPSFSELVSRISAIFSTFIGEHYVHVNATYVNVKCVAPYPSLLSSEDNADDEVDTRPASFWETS
Nature of the experiment: HGFR continuous-coupled spectrophotometric assay. The note with it: Table 3, column 'Ki (μM) or I (%)': cells without % sign; read-out: Ki. The experiment is classed as biochemical.
Broadly, the Ki is a dissociation constant, usually derived from enzyme kinetics or from competition with a known ligand. Take `COc1ccccc1-c1cnc(N)c(OC(C)c2c(Cl)ccc(F)c2Cl)c1` (centres unmarked) [Example I-566, 3-[1-(2,6-Dichloro-3-fluoro-phenyl)-ethoxy]-5-(2-methoxy-phenyl)-pyridin-2-ylamine]: the Ki was found to be 0.278 µM. Same read-out and setting: with `CC(Oc1cc(-c2ccc(C(=O)N3CCCCC3)cc2)cnc1N)c1c(Cl)ccc(F)c1Cl` (centres unmarked) [Example I-546, (4-{6-Amino-5-[1-(2,6-dichloro-3-fluoro-phenyl)-ethoxy]-pyridin-3-yl}-phenyl)-pipendin-1-yl-methanone] the figure was 0.057 µM.

As for `Cc1cc(-c2cnc(N)c(OC(C)c3c(Cl)ccc(F)c3Cl)c2)ccc1C(=O)N1C[C@@H](C)N[C@@H](C)C1` (some centres unmarked) [Example I-570], the Ki came to 0.225 µM. Consider `COc1ncccc1-c1cnc(N)c(OC(C)c2c(Cl)ccc(F)c2Cl)c1` (centres unmarked) [Example I-646, 5-[1-(2,6-Dichloro-3-fluoro-phenyl)-ethoxy]-2′-methoxy-[3,3′]bipyridinyl-6-ylamine], for which the inhibitory constant (Ki) was 0.099 µM.

The same experiment, now with this note: at 1 pM; Table 6, library procedure 41; read-out: % Inhibition (percent c-MET inhibition).
By inhibition is commonly meant the share of the control response that was lost under treatment. Consider `Nc1ncc(C(=O)NCCC2CCOCC2)cc1OCc1c(Cl)cccc1Cl` [Example L-298], for which the inhibition at 1 pM was 31%. Turning to `COc1ccc(CNC(=O)c2cnc(N)c(OCc3c(Cl)cccc3Cl)c2)c(OC)c1` [Example L-198], the inhibition at 1 pM is 59%. Same read-out and setting: to `CCCN(CCO)C1CCCN(C(=O)c2cnc(N)c(OCc3c(Cl)cccc3Cl)c2)CC1` [Example L-334] belongs 17%; to `CN(CCC1CCC(=O)N1CC(F)(F)F)C(=O)c1cnc(N)c(OCc2c(Cl)cccc2Cl)c1` [Example L-321], 25%. Same read-out and setting: to `Nc1ncc(C(=O)N2CCC3(CC2)COC(CCc2cc(O)n[nH]2)C3)cc1OCc1c(Cl)cccc1Cl` [Example L-350] belongs 34%. On the same count and under the same terms, with `Nc1ncc(C(=O)NCc2ccc(F)cc2)cc1OCc1c(Cl)cccc1Cl` [Example L-220] the figure was 32%.

Take `Nc1ncc(C(=O)N2CCC3(CC2)CC(N2CCNC(=O)C2)CO3)cc1OCc1c(Cl)cccc1Cl` [Example L-318]: the inhibition at 1 pM came out at 17%. On the same count and under the same terms, with `Nc1ncc(C(=O)NCCc2ccc(S(N)(=O)=O)cc2)cc1OCc1c(Cl)cccc1Cl` [Example L-187] the figure was 30%; with `CCc1ccc(COCC2CCN(C(=O)c3cnc(N)c(OCc4c(Cl)cccc4Cl)c3)CC2)nc1` [Example L-344], 41%; with `CC(=O)NCCNC(=O)c1cnc(N)c(OCc2c(Cl)cccc2Cl)c1` [Example L-190], 35%. `Nc1ncc(C(=O)NCCCN2CCOCC2)cc1OCc1c(Cl)cccc1Cl` [Example L-177]: the inhibition at 1 pM came out at 26%.

With `Cc1noc([C@H]2CC[C@H](CNC(=O)c3cnc(N)c(OCc4c(Cl)cccc4Cl)c3)CC2)n1` [Example L-326], the inhibition at 1 pM turned out to be 3%.

As for `Nc1ncc(C(=O)N2CCc3nnc(CCN4CCOCC4)n3CC2)cc1OCc1c(Cl)cccc1Cl` [Example L-328], the inhibition at 1 pM is 27%. Take `Nc1ncc(C(=O)NC(CO)Cc2ccc(Cl)cc2)cc1OCc1c(Cl)cccc1Cl` [Example L-182]: the inhibition at 1 pM turned out to be 27%. For the compound `Cc1cc(CCC2CC3(CCN(C(=O)c4cnc(N)c(OCc5c(Cl)cccc5Cl)c4)CC3)CO2)no1` [Example L-340], the inhibition at 1 pM was 19%.

The experiment is the same for the next values; noted with them: at 1 pM; Table 7, library procedure 42; read-out: % Inhibition (percent c-MET inhibition).
With `Nc1ncc(-c2ccc(C(=O)N3CCC(N4CCCC4)CC3)cc2)cc1OCc1cncc2ccccc12`, the inhibition at 1 pM stood at 9%. For `CCc1nc(COc2cc(-c3ccc(C(=O)N4CCC(N5CCCC5)CC4)cc3)cnc2N)no1`, the inhibition at 1 pM turned out to be 5%. With `Nc1ncc(-c2ccc(C(=O)N3CCC(N4CCCC4)CC3)cc2)cc1OCc1ccc(C(=O)NCCN2CCCC2)cc1`, the inhibition at 1 pM is 10%.

In the case of `Cc1onc(-c2ccccc2)c1COc1cc(-c2ccc(C(=O)N3CCC(N4CCCC4)CC3)cc2)cnc1N`, the inhibition at 1 pM came out at 19%.

For `Nc1ncc(-c2ccc(C(=O)N3CCC(N4CCCC4)CC3)cc2)cc1OCc1noc(-c2ccccc2)n1`, the inhibition at 1 pM came to 16%. For `Nc1ncc(-c2ccc(C(=O)N3CCC(N4CCCC4)CC3)cc2)cc1OCc1ccccc1OC(F)(F)F`, the inhibition at 1 pM came to 21%. On the same count and under the same terms, to `Nc1ncc(-c2ccc(C(=O)N3CCC(N4CCCC4)CC3)cc2)cc1OCc1nsc(Cl)n1` belongs 5%; to `Nc1ncc(-c2ccc(C(=O)N3CCC(N4CCCC4)CC3)cc2)cc1OCc1ccc(C(=O)NC2CCN(Cc3ccccc3)C2)cc1` (centres unmarked), 24%. With `Cc1ccc(COc2cc(-c3ccc(C(=O)N4CCC(N5CCCC5)CC4)cc3)cnc2N)c(F)c1F`, the inhibition at 1 pM turned out to be 39%. For `Nc1ncc(-c2ccc(C(=O)N3CCC(N4CCCC4)CC3)cc2)cc1OCc1cccc(C(=O)Nc2cccnc2)c1`, the inhibition at 1 pM is 10%. With `Nc1ncc(-c2ccc(C(=O)N3CCC(N4CCCC4)CC3)cc2)cc1OCc1nc2ccccc2s1`, the inhibition at 1 pM stood at 17%. On the same count and under the same terms, with `CN(C)c1ccc(NC(=O)c2cccc(COc3cc(-c4ccc(C(=O)N5CCC(N6CCCC6)CC5)cc4)cnc3N)c2)cc1` the figure was 23%; with `Cc1cc(COc2cc(-c3ccc(C(=O)N4CCC(N5CCCC5)CC4)cc3)cnc2N)no1`, 16%.

The experiment is the same for the next values; noted with them: at 50 nM; Table 5, library procedure 40; read-out: % inhibition (percent c-MET inhibition).
`CC(Oc1cc(-c2ccc(C(=O)N3CCC(O)(c4ccccc4)CC3)cc2)cnc1N)c1c(Cl)ccc(F)c1Cl` [Example L-28]: the inhibition at 0.05 µM is 64%. Consider `CC(Oc1cc(-c2ccc(C(=O)N(C)CCN(C)C)cc2)cnc1N)c1c(Cl)ccc(F)c1Cl` [Example L-112], for which the inhibition at 0.05 µM worked out at 85%.

On to `CC(Oc1cc(-c2ccc(C(=O)N3CCS(=O)(=O)CC3)cc2)cnc1N)c1c(Cl)ccc(F)c1Cl` [Example L-153], for which the inhibition at 0.05 µM amounted to 95%. Still for that read-out and setting: to `CC(O)CNC(=O)c1ccc(-c2cnc(N)c(OC(C)c3c(Cl)ccc(F)c3Cl)c2)cc1` [Example L-56] belongs 83%. On the same count and under the same terms, with `CC(Oc1cc(-c2ccc(C(=O)N3CCN(CCS(C)(=O)=O)CC3)cc2)cnc1N)c1c(Cl)ccc(F)c1Cl` [Example L-163] the figure was 83%. For the compound `CC(Oc1cc(-c2ccc(C(=O)N3CCC(COCC4CC4)CC3)cc2)cnc1N)c1c(Cl)ccc(F)c1Cl` [Example L-175], the inhibition at 0.05 µM is 60%. On the same count and under the same terms, with `CC(Oc1cc(-c2ccc(C(=O)NCCN3CCCCC3)cc2)cnc1N)c1c(Cl)ccc(F)c1Cl` [Example L-6] the figure was 69%; with `CC(Oc1cc(-c2ccc(C(=O)NCCc3ccncc3)cc2)cnc1N)c1c(Cl)ccc(F)c1Cl` [Example L-111], 71%; with `C[C@H](Oc1cc(-c2ccc(C(=O)N[C@H]3CC[C@H](O)CC3)cc2)cnc1N)c1c(Cl)ccc(F)c1Cl` [Example L-51], 73%.

On to `CC(Oc1cc(-c2ccc(C(=O)NCc3cccnc3)cc2)cnc1N)c1c(Cl)ccc(F)c1Cl` [Example L-9], for which the inhibition at 0.05 µM was determined as 64%. For `C[C@H](Oc1cc(-c2ccc(C(=O)N[C@H](CO)c3ccccc3)cc2)cnc1N)c1c(Cl)ccc(F)c1Cl` [Example L-20], the inhibition at 0.05 µM was found to be 69%. The same measure, in the same setting: to `C[C@H](Oc1cc(-c2ccc(C(=O)N[C@@H](C)C3CCCCC3)cc2)cnc1N)c1c(Cl)ccc(F)c1Cl` [Example L-80] belongs 60%.

With `CC(Oc1cc(-c2ccc(C(=O)NCCCN3CCN(C)CC3)cc2)cnc1N)c1c(Cl)ccc(F)c1Cl` [Example L-3], the inhibition at 0.05 µM turned out to be 63%. The same measure, in the same setting: to `CC(C)OCCCNC(=O)c1ccc(-c2cnc(N)c(OC(C)c3c(Cl)ccc(F)c3Cl)c2)cc1` [Example L-116] belongs 62%; to `CCOCCCNC(=O)c1ccc(-c2cnc(N)c(OC(C)c3c(Cl)ccc(F)c3Cl)c2)cc1` [Example L-108], 70%. On to `CC(Oc1cc(-c2ccc(C(=O)NCc3ccc(C(F)(F)F)nc3)cc2)cnc1N)c1c(Cl)ccc(F)c1Cl` [Example L-148], for which the inhibition at 0.05 µM was 62%.

The same experiment, now with this note: at 1 μM; Table 8, library procedure 43; read-out: % Inhibition (percent c-MET inhibition).
Take `CC1CN(C(=O)c2ccc(-c3cnc(N)c(OCc4nsc(Cl)n4)c3)cc2)CC(C)N1` (centres unmarked): the inhibition at 1 µM came to 6%.

As for `CC1CN(C(=O)c2ccc(-c3cnc(N)c(OCc4cc(C(F)(F)F)ccc4Cl)c3)cc2)CC(C)N1` (centres unmarked), the inhibition at 1 µM is 25%. The same measure, in the same setting: with `Cc1ccc(COc2cc(-c3ccc(C(=O)N4CC(C)NC(C)C4)cc3)cnc2N)c(F)c1F` (centres unmarked) the figure was 37%. Still for that read-out and setting: to `CC1CN(C(=O)c2ccc(-c3cnc(N)c(OCc4cccc(C(=O)NCCc5ccccn5)c4)c3)cc2)CC(C)N1` (centres unmarked) belongs 18%; to `CC1CN(C(=O)c2ccc(-c3cnc(N)c(OCc4c(F)cccc4C(F)(F)F)c3)cc2)CC(C)N1` (centres unmarked), 33%; to `CC1CN(C(=O)c2ccc(-c3cnc(N)c(OCc4nc5ccccc5n4C)c3)cc2)CC(C)N1` (centres unmarked), 16%.

In the case of `CC1CN(C(=O)c2ccc(-c3cnc(N)c(OCc4ccc(S(=O)(=O)Nc5ccc(F)cc5)cc4)c3)cc2)CC(C)N1` (centres unmarked), the inhibition at 1 µM was found to be 14%.

The experiment is the same for the next values; noted with them: cells prefixed Ki; read-out: Met Ki.
With `C=Cc1cnc(N)c(OC(C)c2c(Cl)ccc(F)c2Cl)c1` (centres unmarked) [Example I-461, 3-[1-(2,6-Dichloro-3-fluoro-phenyl)-ethoxy]-5-vinyl-pyridin-2-ylamine], the inhibition constant (Ki) was found to be 0.68 µM. On the same count and under the same terms, to `CC(Oc1cc(-c2cnn(CCN(C(C)C)C(C)C)c2)cnc1N)c1c(Cl)ccc(F)c1Cl` (centres unmarked) [Example I-466, 3-[1-(2,6-Dichloro-3-fluoro-phenyl)-ethoxy]-5-[1-(2-diisopropylamino-ethyl)-1H-pyrazol-4-yl]-pyridin-2-yl amine] belongs 0.47 µM; to `CC(Oc1cc(C#CC(C)(C)NC(=O)N2CCC[C@@H]2CN2CCCC2)cnc1N)c1c(Cl)ccc(F)c1Cl` (stereo partly drawn) [Example I-434, (R)-2-Pyrrolidin-1-ylmethyl-pyrrolidine-1-carboxylic acid (3-{6-amino-5-[1-(2,6-dichloro-3-fluoro-phenyl)-ethoxy]-pyridin-3-yl}-1,1-dimethyl-prop-2-ynyl)-amide], 1.22 µM. Turning to `CC(C)Oc1c(F)cccc1COc1cc(Br)cnc1N` [Example I-472, 5-Bromo-3-(3-fluoro-2-isopropoxy-benzyloxy)-pyridin-2-ylamine], the Ki is 12.1 µM.

Source of the values: patent US20050009840A1 (SUGEN, INC., priority 2003, published 2005).
